From ChEMBL document CHEMBL5380850, “Discovery of the First Raptor (Regulatory-Associated Protein of mTOR) Inhibitor as a New Type of Antiadipogenic Agent” (J Med Chem, 2023)
The source made the active and inactive calls. The calls are words filed in the database; no cut-off is given here.

Experiments:
mTORC1 (Mus musculus) [1] = biological target: mTORC1 (Mus musculus) (UniProt Q9JLN9); assay: Inhibition of mTORC1 formation in siRNA mediated Raptor knockdown mouse 3T3-L1 cells assessed as decrease in 4E-BP1 expression level at 10 uM incubated for 24 hrs by Western blot analysis; format: cell-based
Mus musculus [2] = assay: Anti-obesity activity in high fat diet-induced obese C57BL/6J mouse model assessed as reduction in blood glucose level at 40 mg/kg, ip administered every two days for 5 weeks pretreated with compound and followed by insulin stimulation and measured upto 120 mins by insulin tolerance test; format: functional, organism-based
Mus musculus [3] = assay: Anti-obesity activity in high fat diet-induced obese C57BL/6J mouse model assessed as increase in COX4 expression level in inguen white adipose tissue at 40 mg/kg, ip administered every two days for 46 days by immunohistochemical analysis; format: functional, organism-based; conditions: time 46.0 day
[4] = Selectivity index, ratio of IC50 for cytotoxicity against mouse 3T3-L1 cells to EC50 for anti-adipogenic activity against mouse 3T3-L1 cells; format: cell-based; conditions: read-out: Ratio IC50/EC50
3T3-L1 [5] = assay: Anti-adipogenic activity in siRNA-mediated LC3B knockdown mouse 3T3-L1 cells assessed as decrease in triglyceride level at 10 uM by Oil Red O staining based microscopic analysis; format: functional, cell-based
mTORC1 (Mus musculus) [6] = biological target: mTORC1 (Mus musculus) (UniProt Q9JLN9); assay: Inhibition of mTORC1 formation in siRNA mediated Raptor knockdown mouse 3T3-L1 cells assessed as decrease in S6K1 expression level at 10 uM incubated for 24 hrs by Western blot analysis; format: cell-based
3T3-L1 [7] = assay: Anti-adipogenic activity against mouse 3T3-L1 cells at adipogenesis stage assessed as decrease in triglyceride level at 1 uM and measured upto 3 days by Oil Red O staining based spectroscopic analysis; format: functional, cell-based; conditions: time <= 3.0 day
Mus musculus [8] = assay: Anti-obesity activity in high fat diet-induced obese C57BL/6J mouse model assessed as increase in COX4 expression level in brown adipocyte at 40 mg/kg, ip administered every two days for 46 days by immunohistochemical analysis; format: functional, organism-based; conditions: time 46.0 day
3T3-L1 [9] = assay: Anti-adipogenic activity against mouse 3T3-L1 cells assessed as downregulation of ACC protein expression level at 0.1 to 1 uM incubated for 6 days by Western blot analysis; format: functional, cell-based; conditions: dose 0.1-1 µM, time 6.0 day
3T3-L1 [10] = assay: Anti-adipogenic activity against mouse 3T3-L1 cells assessed as downregulation of C/EBPalpha protein expression level at 0.1 to 1 uM incubated for 24 hrs by Western blot analysis; format: functional, cell-based; conditions: dose 0.1-1 µM
[11] = biological target: Regulatory-associated protein of mTOR (Mus musculus) (UniProt Q8K4Q0); assay: Binding affinity to Raptor in mouse 3T3-L1 cells at 50 uM incubated overnight by pull-down assay
Mus musculus [12] = assay: Anti-obesity activity in high fat diet-induced obese C57BL/6J mouse model assessed as reduction in plasma AST level at 40 mg/kg, ip administered every two days for 46 days; format: functional, organism-based; conditions: time 46.0 day
Mus musculus [13] = assay: Anti-obesity activity in high fat diet-induced obese C57BL/6J mouse assessed as reduction in visceral fat content by measuring subcutis white adipose tissue weight at 40 mg/kg, ip administered every two days for 46 days; format: functional, organism-based; conditions: time 46.0 day
[14] = biological target: Serine/threonine-protein kinase mTOR (Mus musculus) (UniProt Q9JLN9); assay: Inhibition of mTOR signalling in mouse 3T3-L1 cells assessed as upregulation of LC3II expression level at 0.1 to 10 uM incubated for 24 hrs by Western blot analysis; format: cell-based; conditions: dose 0.1-10 µM
3T3-L1 [15] = assay: Anti-adipogenic activity in mouse 3T3-L1 cells assessed as increase in mCherry-LC3B-labeled autophagosomes at 10 uM by Immunofluorescence analysis; format: functional, cell-based

Regulatory-associated protein of mTOR (Mus musculus), sequence (Q8K4Q0 whole entry, looked up): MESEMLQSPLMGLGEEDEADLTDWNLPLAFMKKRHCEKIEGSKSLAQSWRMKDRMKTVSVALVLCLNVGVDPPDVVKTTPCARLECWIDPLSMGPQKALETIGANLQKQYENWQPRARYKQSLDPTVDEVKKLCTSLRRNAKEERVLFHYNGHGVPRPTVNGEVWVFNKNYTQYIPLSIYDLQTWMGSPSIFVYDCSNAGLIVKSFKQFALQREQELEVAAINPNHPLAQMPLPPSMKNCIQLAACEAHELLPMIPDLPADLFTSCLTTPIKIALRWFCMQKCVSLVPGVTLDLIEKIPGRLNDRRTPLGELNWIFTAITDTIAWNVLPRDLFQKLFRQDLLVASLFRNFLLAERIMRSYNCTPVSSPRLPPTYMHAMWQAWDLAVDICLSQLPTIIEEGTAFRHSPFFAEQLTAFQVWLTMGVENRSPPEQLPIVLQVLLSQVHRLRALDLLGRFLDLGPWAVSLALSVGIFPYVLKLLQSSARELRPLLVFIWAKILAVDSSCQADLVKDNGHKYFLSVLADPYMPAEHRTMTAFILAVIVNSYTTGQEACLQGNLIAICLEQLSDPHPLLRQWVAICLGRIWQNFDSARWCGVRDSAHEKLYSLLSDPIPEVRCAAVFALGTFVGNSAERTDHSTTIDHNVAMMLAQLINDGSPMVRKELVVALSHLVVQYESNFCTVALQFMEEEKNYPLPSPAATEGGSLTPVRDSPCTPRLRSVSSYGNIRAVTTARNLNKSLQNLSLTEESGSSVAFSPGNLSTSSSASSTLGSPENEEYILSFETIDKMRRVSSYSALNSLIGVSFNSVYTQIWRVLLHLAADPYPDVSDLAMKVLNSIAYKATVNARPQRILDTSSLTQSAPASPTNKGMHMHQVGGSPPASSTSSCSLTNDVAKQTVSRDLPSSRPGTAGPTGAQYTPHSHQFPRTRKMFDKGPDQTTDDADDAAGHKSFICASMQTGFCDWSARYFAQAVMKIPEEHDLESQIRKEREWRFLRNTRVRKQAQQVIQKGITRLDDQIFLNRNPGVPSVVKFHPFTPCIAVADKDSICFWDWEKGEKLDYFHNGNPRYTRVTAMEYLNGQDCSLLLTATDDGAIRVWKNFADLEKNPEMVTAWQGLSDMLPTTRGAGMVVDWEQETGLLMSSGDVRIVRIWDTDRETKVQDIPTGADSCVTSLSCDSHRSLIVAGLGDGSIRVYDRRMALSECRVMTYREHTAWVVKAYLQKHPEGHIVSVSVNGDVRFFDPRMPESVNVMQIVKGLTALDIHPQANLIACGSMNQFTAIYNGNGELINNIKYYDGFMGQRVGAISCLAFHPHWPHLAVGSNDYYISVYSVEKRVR

## C=C(C)[C@@]12OC3(c4ccccc4)O[C@@H]1[C@@H]1[C@H](O)[C@](Cl)(COC(=O)c4ccccc4)[C@@H](O)[C@]4(O)C(=O)C(C)=C[C@H]4[C@@]1(O3)[C@H](C)[C@H]2OC(C)=O
mTORC1 (Mus musculus) [1]
  inhibition: Active
Mus musculus [2]
  Activity: Active
Mus musculus [3]
  Activity: Active
[4]
  selectivity ratio: > 1030
3T3-L1 [5]
  Activity: Active
mTORC1 (Mus musculus) [6]
  inhibition: Active
3T3-L1 [7]
  Activity: inactive
Mus musculus [8]
  Activity: Active
3T3-L1 [9]
  Activity: Active
3T3-L1 [10]
  Activity: Active
[11]
  Activity: Active
Mus musculus [12]
  Activity: Active
Mus musculus [13]
  Activity: Active
[14]
  inhibition: Active
3T3-L1 [15]
  Activity: Active
